Experimental data reported in patent US20120010075A1 (priority 2009, published 2012).
Where two headings read alike, the source gives them in different places.

Legend:
Phytophthora infestans = type: in vivo, Phytophthora infestans on tomato; conditions: applied 24 h before inoculation, assessed 7 days after inoculation
[1] = test system: Leptosphaeria nodorum (LEPTNO); assay: In vitro fungitoxicity of hydrazones with and without copper towards Leptosphaeria nodorum (Example 26); type: cell-based; conditions: 72 h at 25° C.; for inhibition of growth at 0.05 µg/mL: Parastagonospora nodorum, 72 h, copper-minus medium, read-out: LEPTNO % Inhn. Minus Copper Observed
[2] = hydrazone 50 ppm with 50 μM CuCl2.2H2O, tomato late blight
[3] = test compound Concn. 0.05 μg/mL
[4] = copper-plus medium (CuCl2 10 μM), test compound Concn. 0.05 μg/mL
[5] = hydrazone 50 ppm + 50 μM CuCl2.2H2O, tomato
[6] = compound 0.05 μg/mL, copper-plus medium (CuCl2.2H2O)

SMILES	TLB % Control (Phytophthora infestans; [2]) [%]	melting point [°C]	inhibition of growth at 0.05 µg/mL [1, 3] [%]	LEPTNO % Inhn. Plus Copper Observed [1, 4] [%]	TLB % Control (Phytophthora infestans; [5]) [%]	inhibition of growth at 0.05 µg/mL ([1]; compound 0.05 μg/mL) [%]	LEPTNO % Inhn. Plus Copper Observed [1, 6] [%]
COc1cc(O)c(/C(C)=N/NC(=O)c2ccc(Cl)cc2)c(OC)c1 [Example 568]	61.0	136 to 140	8	94.3	–	–	–
O=C(N/N=C/c1cc(Cl)cc(Cl)c1O)c1cccc(C(F)(F)F)c1 [Example 249]	–	165 to 169	–	–	100.0	27.8	95.8
C/C(=N\NC(=O)c1ccc(Br)cc1)c1ccc(Cl)cc1O [Example 460]	39.0	258 to 259	0	97.6	–	–	–
O=C(N/N=C/c1cc([N+](=O)[O-])cc(Br)c1O)c1cccc(Cl)c1 [Example 201]	–	276 to 280	–	–	50.9	4	96.0
O=C(N/N=C/c1c(Cl)ccc(Cl)c1O)c1cccc(F)c1 [Example 367]	95.0	203 to 209	13.1	97.9	–	–	–
COc1cc(O)c(/C(C)=N/NC(=O)c2ccc(C(F)(F)F)cc2)c(OC)c1 [Example 571]	31.0	131 to 133	0	84.7	–	–	–
C/C(=N\NC(=O)c1cccc(C)c1O)c1cc(Cl)cc(Cl)c1O [Example 565]	98.0	278 to 279	12.2	97.4	–	–	–
O=C(N/N=C/c1cccc(Cl)c1O)c1ccc([N+](=O)[O-])cc1 [Example 430]	100.0	284 to 287	16.6	98.2	–	–	–
O=C(N/N=C/c1cc(Cl)cc(Br)c1O)c1ccccc1C(F)(F)F [Example 418]	93.0	266 to 274	0	97.3	–	–	–
COc1ccc(/C(C)=N/NC(=O)c2ccccc2Cl)c(O)c1OC [Example 555]	46.0	77 to 86	3.7	92.5	–	–	–
CCc1ccc(C(=O)N/N=C/c2cc(Cl)cc(Cl)c2O)cc1 [Example 260]	–	286 to 289	–	–	81.0	11.2	97.1
O=C(N/N=C/c1cccc(C(F)(F)F)c1O)c1cccc(F)c1 [Example 345]	97.0	176 to 180	18.8	97.9	–	–	–
C/C(=N\NC(=O)c1ccc(C)cc1)c1cc(Br)ccc1O [Example 290]	–	245 to 248	–	–	21.0	0.4	95.5
COc1ccc(O)c(/C(C)=N/NC(=O)c2ccccc2Cl)c1 [Example 265]	–	170 to 184	–	–	15.0	0	98.1
C/C(=N\NC(=O)c1ccc(Br)cc1)c1cccc(Cl)c1O [Example 500]	80.0	226 to 232	9.2	93.2	–	–	–
C/C(=N\NC(=O)c1cccc(C)c1)c1cccc([N+](=O)[O-])c1O [Example 270]	–	235 to 239	–	–	61.0	6.9	98.6

SMILES	TLB % Control (Phytophthora infestans; [2]) [%]	melting point [°C]	inhibition of growth at 0.05 µg/mL [1, 3] [%]	LEPTNO % Inhn. Plus Copper Observed [1, 4] [%]	TLB % Control (Phytophthora infestans; [5]) [%]	inhibition of growth at 0.05 µg/mL ([1]; compound 0.05 μg/mL) [%]	LEPTNO % Inhn. Plus Copper Observed [1, 6] [%]
C/C(=N\NC(=O)c1cccc(Cl)c1)c1ccc(Cl)cc1O [Example 256]	–	222 to 223	–	–	18.0	3	98.7
Cc1cc(C)cc(C(=O)N/N=C/c2cc(Br)ccc2O)c1 [Example 107]	–	191 to 195	–	–	74.6	0	97.2
C/C(=N\NC(=O)c1ccc(Cl)cc1)c1cc(Cl)ccc1O [Example 510]	56.0	248 to 252	6.2	95.5	–	–	–
C/C(=N\NC(=O)c1ccccc1Br)c1cc(C(F)(F)F)ccc1O [Example 537]	90.0	192 to 200	12.2	96.2	–	–	–
COc1ccc(C(=O)N/N=C(\C)c2cc(F)cc(F)c2O)cc1 [Example 579]	97.0	243 to 247	0	97.6	–	–	–
Cc1ccc(C(=O)N/N=C/c2cc(Cl)cc(C(F)(F)F)c2O)c(O)c1 [Example 386]	100.0	252 to 254	41.1	98.4	–	–	–
Cc1cccc(C(=O)N/N=C/c2c(O)cccc2Cl)c1 [Example 398]	98.0	245 to 248	5.4	94.7	–	–	–
COc1ccc(/C(C)=N/NC(=O)c2cccc(Cl)c2)c(O)c1OC [Example 556]	75.0	194 to 201	7.7	95.9	–	–	–
O=C(N/N=C/c1ccc(Cl)cc1O)c1cccc([N+](=O)[O-])c1 [Example 393]	73.0	233 to 238	4.3	96.1	–	–	–
C/C(=N\NC(=O)c1ccc(C)cc1)c1cc(C(F)(F)F)ccc1O [Example 530]	59.0	225 to 229	9.8	96.2	–	–	–
C/C(=N\NC(=O)c1ccc(C)cc1)c1cccc(Cl)c1O [Example 495]	91.0	195 to 200	0	97.3	–	–	–
C/C(=N\NC(=O)c1ccc(C)cc1)c1ccc(Cl)cc1O [Example 254]	–	254 to 256	–	–	0.0	8.3	98.1
C/C(=N\NC(=O)c1ccc(Cl)cc1O)c1cc(Cl)cc(Cl)c1O [Example 489]	85.0	314 to 317	15.8	97.8	–	–	–
O=C(N/N=C/c1cc(C(F)(F)F)ccc1O)c1cccc(Cl)c1 [Example 439]	96.0	187 to 197	0	100.0	–	–	–
O=C(N/N=C/c1cc(C(F)(F)F)cc(Cl)c1O)c1cccc(F)c1 [Example 323]	100.0	210 to 212	16.1	98.1	–	–	–
